Assay: xn = mol fraction of the nth substance listed
Details: 100 kPa, Liquid; for viscosity: Falling or rolling sphere viscometry; for speed of sound: Frequency=3 MHz, Single path-length method; for mass density: Vibrating tube method

CCCCn1cc[n+](C)c1.O=S(=O)([O-])C(F)(F)F [1-butyl-3-methylimidazolium trifluoromethanesulfonate] + CN(C)C=O
Details	mass density, 313.15 K [kg/m3]	mass density, 318.15 K [kg/m3]	mass density, 323.15 K [kg/m3]	speed of sound, 313.15 K [m/s]	speed of sound, 318.15 K [m/s]	speed of sound, 323.15 K [m/s]	viscosity, 313.15 K [mPa·s]	viscosity, 318.15 K [mPa·s]	viscosity, 323.15 K [mPa·s]
x1 = 0.1087	1027.69	1022.88	1018.08	1398.1	1381.2	1364.5	1.44	1.34	1.26
x1 = 0.203	1085.84	1081.13	1076.42	1390.4	1375	1359.6	2.64	2.4	2.2
x1 = 0.2978	1129.15	1124.56	1119.97	1381.4	1367	1352.6	3.81	3.47	3.17
x1 = 0.409	1168.33	1163.87	1159.41	1373.6	1360.1	1346.7	6.01	5.41	4.88
x1 = 0.4969	1193.03	1188.67	1184.31	1369.7	1356.8	1344	8.71	7.74	6.89
x1 = 0.603	1217.94	1213.69	1209.43	1365.6	1353.3	1341.1	13.22	11.6	10.21
x1 = 0.699	1237.03	1232.85	1228.67	1363	1351.2	1339.5	19.53	16.84	14.64
x1 = 0.809	1256.31	1252.21	1248.11	1361.7	1350.3	1339.1	29.38	24.86	21.29
x1 = 0.8928	1269.5	1265.45	1261.4	1360.9	1349.7	1338.7	37.11	31.09	26.39
x1 = 1	1285.47	1281.47	1277.48	1360.7	1349.9	1338.8	43.67	36.29	30.57

— the NIST ThermoML archive (doi:10.1021/acs.jced.8b00176)
